Results taken from US20150166523A1, “BRANCHED CHAIN ALKYL HETEROAROMATIC RING DERIVATIVE” (TAISHO PHARMACEUTICAL CO., LTD., priority 2012, published 2015).

Key:
[1] = molecular target: T1, orexin-2 receptor (hOX2R) (Homo sapiens, UniProt O43614); test: Measurement of orexin antagonistic activity (intracellular Ca2+ fluorescence, FDSS) on hOX2R; format: cell-based; conditions: CHO cells forcibly expressing hOX2R; Fluo-4AM; ligand peptide (substituted human orexin-A) 3 nM; compound preincubated 30 minutes; read-out: IC50 Value OX2
T1 construct: expressed in transfected cells; host or cells: Chinese hamster ovary (CHO) cells
T1 sequence (O43614 1-444): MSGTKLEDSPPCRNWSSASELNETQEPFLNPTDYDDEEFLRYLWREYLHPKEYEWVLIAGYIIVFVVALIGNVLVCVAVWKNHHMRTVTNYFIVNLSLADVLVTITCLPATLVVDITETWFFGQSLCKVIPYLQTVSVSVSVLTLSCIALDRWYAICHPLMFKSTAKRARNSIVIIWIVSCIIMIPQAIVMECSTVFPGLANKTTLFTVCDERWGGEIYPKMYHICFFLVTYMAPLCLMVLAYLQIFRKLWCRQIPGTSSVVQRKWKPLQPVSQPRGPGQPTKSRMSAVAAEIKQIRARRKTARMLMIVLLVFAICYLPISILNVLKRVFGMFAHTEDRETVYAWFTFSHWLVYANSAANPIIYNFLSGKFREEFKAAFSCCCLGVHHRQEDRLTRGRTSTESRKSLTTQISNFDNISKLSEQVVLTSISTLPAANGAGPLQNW
Outline: (§1)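 CHO cells stably expressing hOX1R or hOX2R, loaded with 0.5 μM Fluo-4AM in HEPES/HBSS buffer with 0.1% BSA and 2.5 mM probenecid, pH 7.4, then preincubated 30 min with compound. Fluorescence recorded each second for 3 min by FDSS; maximum intensity taken as intracellular Ca2+ indicator of antagonism.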

[2] = molecular target: T2, human orexin-1 receptor (hOX1R) (Homo sapiens, UniProt O43613); test: Measurement of orexin antagonistic activity (intracellular Ca2+ fluorescence, FDSS) on hOX1R; format: cell-based; conditions: CHO cells forcibly expressing hOX1R; Fluo-4AM; ligand peptide (substituted human orexin-A) 300 pM; compound preincubated 30 minutes; read-out: IC50 Value OX1
T2 construct: expressed in transfected cells; host or cells: Chinese hamster ovary (CHO) cells
T2 sequence (O43613 1-425): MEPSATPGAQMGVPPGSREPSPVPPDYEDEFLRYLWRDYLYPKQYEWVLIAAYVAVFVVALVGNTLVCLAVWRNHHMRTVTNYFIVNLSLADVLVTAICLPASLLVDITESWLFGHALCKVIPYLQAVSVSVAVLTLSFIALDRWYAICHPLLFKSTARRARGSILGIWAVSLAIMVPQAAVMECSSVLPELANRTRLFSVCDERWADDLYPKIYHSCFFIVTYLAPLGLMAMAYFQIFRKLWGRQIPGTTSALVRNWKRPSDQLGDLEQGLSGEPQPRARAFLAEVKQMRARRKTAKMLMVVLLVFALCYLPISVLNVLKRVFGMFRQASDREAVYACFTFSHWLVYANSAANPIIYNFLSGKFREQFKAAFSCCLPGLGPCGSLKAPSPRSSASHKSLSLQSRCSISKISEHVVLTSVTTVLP
Outline: as §1

Row | Compound | IC50 [1] [nM] | IC50 [2] [nM]
1 | CCN(C(=O)c1cc(C)ccc1-c1ncccn1)[C@@H](C)Cn1nnc(-c2ccc(F)cc2)n1 [Example 68, N-Ethyl-N-{(2S)-1-[5-(4-fluorophenyl)-2H-tetrazol-2-yl]propan-2-yl}-5-methyl-2-(pyrimidin-2-yl)benzamide] | 33.7 | 0.8
2 | CCN(C(=O)c1cc(C)ccc1-n1nccn1)[C@@H](C)Cn1cc(-c2ccc(F)cc2)nn1 [Example 71, N-Ethyl-N-{(2S)-1-[4-(4-fluorophenyl)-1H-1,2,3-triazol-1-yl]propan-2-yl}-5-methyl-2-(2H-1,2,3-triazol-2-yl)benzamide] | 21.8 | 1.3
3 | COCCN(C(=O)c1cc(C)ccc1-n1nccn1)[C@@H](C)Cn1cc(-c2ccc(F)cc2)nn1 [Example 72, N-{(2S)-1-[4-(4-Fluorophenyl)-1H-1,2,3-triazol-1-yl]propan-2-yl}-N-(2-methoxyethyl)-5-methyl-2-(2H-1,2,3-triazol-2-yl)benzamide] | 401 | 102
4 | Cc1ccc(-n2nccn2)c(C(=O)N(CCO)[C@@H](C)Cn2cc(-c3ccc(F)cc3)nn2)c1 [Example 73, N-{(2S)-1-[4-(4-Fluorophenyl)-1H-1,2,3-triazol-1-yl]propan-2-yl}-N-(2-hydroxyethyl)-5-methyl-2-(2H-1,2,3-triazol-2-yl)benzamide] | 5.7 | 80.3
5 | CCN(C(=O)c1cc(C)ccc1-n1nccn1)C(C)Cc1cnn(-c2ccc(F)cn2)c1 (stereo not drawn) [Example 74, N-Ethyl-N-{1-[1-(5-fluoropyridin-2-yl)-1H-pyrazol-4-yl]propan-2-yl}-5-methyl-2-(2H-1,2,3-triazol-2-yl)benzamide] | 13.1 | 1.3
6 | CCN(C(=O)c1cc(C)ccc1-n1nccn1)C(C)Cc1ccn(-c2ccc(F)cn2)n1 (stereo not drawn) [Example 75, N-Ethyl-N-{1-[1-(5-fluoropyridin-2-yl)-1H-pyrazol-3-yl]propan-2-yl}-5-methyl-2-(2H-1,2,3-triazol-2-yl) benzamide] | 1.7 | 1.4
7 | CCN(C(=O)c1cc(C)ccc1-n1nccn1)[C@@H](C)Cc1nnc(-c2ccc(F)cc2)o1 [Example 76, N-Ethyl-N-{(2S)-1-[5-(4-fluorophenyl)-1,3,4-oxadiazol-2-yl]propan-2-yl}-5-methyl-2-(2H-1,2,3-triazol-2-yl)benzamide] | 59.7 | 1
8 | CCN(C(=O)c1nc(C)ccc1-n1nccn1)[C@@H](C)Cn1cc(-c2ccc(F)cn2)nn1 [Example 77, N-Ethyl-N-{(2S)-1-[4-(5-fluoropyridin-2-yl)-1H-1,2,3-triazol-1-yl]propan-2-yl}-6-methyl-3-(2H-1,2,3-triazol-2-yl)pyridine-2-carboxamide] | 1450 | 48.8
9 | CCN(C(=O)c1cc(F)ccc1-n1nccn1)[C@@H](C)Cn1cc(-c2ccc(F)cn2)nn1 [Example 78, N-Ethyl-5-fluoro-N-{(2S)-1-[4-(5-fluoropyridin-2-yl)-1H-1,2,3-triazol-1-yl]propan-2-yl}-2-(2H-1,2,3-triazol-2-yl)benzamide] | 593 | 20.9
10 | CCN(C(=O)c1cc(C)ccc1-c1ncccn1)[C@@H](C)Cn1cc(-c2ccc(F)cn2)nn1 [Example 79, N-Ethyl-N-{(2S)-1-[4-(5-fluoropyridin-2-yl)-1H-1,2,3-triazol-1-yl]propan-2-y}-5-methyl-2-(pyrimidin-2-yl)benzamide] | 427 | 63.6
11 | CCN(C(=O)c1nc(C)ccc1-c1ncccn1)[C@@H](C)Cn1cc(-c2ccc(F)cn2)nn1 [Example 80, N-Ethyl-N-{(2S)-1-[4-(5-fluoropyridin-2-yl)-1H-1,2,3-triazol-1-yl]propan-2-yl}-6-methyl-3-(pyrimidin-2-yl)pyridine-2-carboxamide] | 7810 | 687
12 | CCN(C(=O)c1cc(F)ccc1-c1ncccn1)[C@@H](C)Cn1cc(-c2ccc(F)cn2)nn1 [Example 81, N-Ethyl-5-fluoro-N-{(2S)-1-[4-(5-fluoropyridin-2-yl)-1H-1,2,3-triazol-1-yl]propan-2-yl}-2-(pyrimidin-2-yl) benzamide] | 3150 | 177
13 | CCN(C(=O)c1cc(C)ccc1-n1nccn1)[C@@H](C)Cn1cc(-c2ccc(F)cn2)nn1 [Example 82, N-Ethyl-N-{(2S)-1-[4-(5-fluoropyridin-2-yl)-1H-1,2,3-triazol-1-yl]propan-2-yl}-5-methyl-2-(2H-1,2,3-triazol-2-yl)benzamide] | 13.3 | 2.2
14 | CCN(C(=O)c1nc(C)ccc1-n1nccn1)[C@@H](C)Cn1cc(-c2ccc(F)cc2)nn1 [Example 83, N-Ethyl-N-{(2S)-1-[4-(4-fluorophenyl)-1H-1,2,3-triazol-1-yl]propan-2-yl}-6-methyl-3-(2H-1,2,3-triazol-2-yl)pyridine-2-carboxamide] | 308 | 9.9
15 | CCN(C(=O)c1cc(F)ccc1-n1nccn1)[C@@H](C)Cn1cc(-c2ccc(F)cc2)nn1 [Example 84, N-Ethyl-5-fluoro-N-{(2S)-1-[4-(4-fluorophenyl)-1H-1,2,3-triazol-1-yl]propan-2-yl}-2-(2H-1,2,3-triazol-2-yl)benzamide] | 51.4 | 3.1
16 | CCN(C(=O)c1cc(C)ccc1-n1nccn1)[C@@H](C)Cn1nnc(-c2ccc(F)cn2)n1 [Example 85, N-Ethyl-N-{(2S)-1-[5-(5-fluoropyridin-2-yl)-2H-tetrazol-2-yl]propan-2-yl}-5-methyl-2-(2H-1,2,3-triazol-2-yl)benzamide] | 27.5 | 1.3
17 | CCN(C(=O)c1nc(C)ccc1-n1nccn1)[C@@H](C)Cn1nnc(-c2ccc(F)cn2)n1 [Example 86, N-Ethyl-N-{(2S)-1-[5-(5-fluoropyridin-2-yl)-2H-tetrazol-2-yl]propan-2-yl}-6-methyl-3-(2H-1,2,3-triazol-2-yl)pyridine-2-carboxamide] | 1030 | 37.7
18 | CCN(C(=O)c1cc(F)ccc1-n1nccn1)[C@@H](C)Cn1nnc(-c2ccc(F)cn2)n1 [Example 87, N-Ethyl-5-fluoro-N-{(2S)-1-[5-(5-fluoropyridin-2-yl)-2H-tetrazol-2-yl]propan-2-yl}-2-(2H-1,2,3-triazol-2-yl)benzamide] | 283 | 9.8
19 | CCN(C(=O)c1cc(C)ccc1-c1ncccn1)[C@@H](C)Cn1nnc(-c2ccc(F)cn2)n1 [Example 88, N-Ethyl-N-{(2S)-1-[5-(5-fluoropyridin-2-yl)-2H-tetrazol-2-yl]propan-2-yl}-5-methyl-2-(pyrimidin-2-yl)benzamide] | 41.2 | 13.4
20 | Cc1ccc(-n2nccn2)c(C(=O)N(CCN(C)C)[C@@H](C)Cn2cc(-c3ccc(F)cc3)nn2)c1 [Example 89, N-[2-(Dimethylamino)ethyl]-N-{(2S)-1-[4-(4-fluorophenyl)-1H-1,2,3-triazol-1-yl]propan-2-yl}-5-methyl-2-(2H-1,2,3-triazol-2-yl)benzamide] | 6930 | 229
21 | Cc1ccc(-n2nccn2)c(C(=O)N(CCS(C)(=O)=O)[C@@H](C)Cn2cc(-c3ccc(F)cc3)nn2)c1 [Example 90, N-{(2S)-1-[4-(4-Fluorophenyl)-1H-1,2,3-triazol-1-yl]propan-2-yl}-5-methyl-N-[2-(methylsulfonyl)ethyl]-2-(2H-1,2,3-triazol-2-yl)benzamide] | 2070 | 23.7
22 | Cc1ccc(-n2nccn2)c(C(=O)N(CCC#N)[C@@H](C)Cn2cc(-c3ccc(F)cc3)nn2)c1 [Example 91, N-(2-Cyanoethyl)-N-{(2S)-1-[4-(4-fluorophenyl)-1H-1,2,3-triazol-1-yl]propan-2-yl}-5-methyl-2-(2H-1,2,3-triazol-2-yl) benzamide] | 279 | 203
23 | CCN(C(=O)c1cc(C)ccc1-n1nccn1)[C@@H](C)Cn1cc(-c2ccc(Cl)cc2)nn1 [Example 92, N-{(2S)-1-[4-(4-Chlorophenyl)-1H-1,2,3-triazol-1-yl]propan-2-yl}-N-ethyl-5-methyl-2-(2H-1,2,3-triazol-2-yl)benzamide] | 64.6 | 2.5
24 | CCN(C(=O)c1cc(C)ccc1-n1nccn1)[C@@H](C)Cn1cc(-c2cccc(O)c2)nn1 [Example 93, N-Ethyl-N-{(2S)-1-[4-(3-hydroxyphenyl)-1H-1,2,3-triazol-1-yl]propan-2-yl}-5-methyl-2-(2H-1,2,3-triazol-2-yl)benzamide] | 7.4 | 1.4
